Numbering of substitutions follows the chain as printed. Where two headings read alike, the source gives them in different places.
Experiments:
Type in all cases: cell-based
VCaP cells = assay: Inhibition of proliferation of VCaP cells (WST-8); details: Homo sapiens, read-out: IC50 for inhibiting the proliferation of VCaP cells
Description: The inhibitory activity of the compounds disclosed in the present disclosure on the proliferation of VCaP cells
On the first day of the experiment, […] were inoculated in 96 well plates at a density of 15000 cells per well using DMEM medium containing 10% fetal bovine serum, with 100 μL of cell suspension per well. The cells were cultured in a cell culture incubator with 5% CO2 at 37° C. overnight. […] On the ninth day, 96 well plates were taken out, and 20 μL of WST-8 (Beytime, C0040) reagent was added to each well.

AR protein [1] = target: T1, AR protein (Homo sapiens, UniProt P10275, T878A); assay: Degradation of AR protein in LNCaP cells (Western blot); details: for inhibition at 0.01 µM: read-out: Degradation rates of the AR protein in LNCaP cells, 10 nM (%); for inhibition at 0.1 µM: read-out: Degradation rates of the AR protein in LNCaP cells, 100 nM (%)
T1 construct: degradation activity of the compounds disclosed in the present disclosure on AR protein in LNCaP cells; host or cells: LNCaP FGC
T1 sequence (P10275 1-920 T878A): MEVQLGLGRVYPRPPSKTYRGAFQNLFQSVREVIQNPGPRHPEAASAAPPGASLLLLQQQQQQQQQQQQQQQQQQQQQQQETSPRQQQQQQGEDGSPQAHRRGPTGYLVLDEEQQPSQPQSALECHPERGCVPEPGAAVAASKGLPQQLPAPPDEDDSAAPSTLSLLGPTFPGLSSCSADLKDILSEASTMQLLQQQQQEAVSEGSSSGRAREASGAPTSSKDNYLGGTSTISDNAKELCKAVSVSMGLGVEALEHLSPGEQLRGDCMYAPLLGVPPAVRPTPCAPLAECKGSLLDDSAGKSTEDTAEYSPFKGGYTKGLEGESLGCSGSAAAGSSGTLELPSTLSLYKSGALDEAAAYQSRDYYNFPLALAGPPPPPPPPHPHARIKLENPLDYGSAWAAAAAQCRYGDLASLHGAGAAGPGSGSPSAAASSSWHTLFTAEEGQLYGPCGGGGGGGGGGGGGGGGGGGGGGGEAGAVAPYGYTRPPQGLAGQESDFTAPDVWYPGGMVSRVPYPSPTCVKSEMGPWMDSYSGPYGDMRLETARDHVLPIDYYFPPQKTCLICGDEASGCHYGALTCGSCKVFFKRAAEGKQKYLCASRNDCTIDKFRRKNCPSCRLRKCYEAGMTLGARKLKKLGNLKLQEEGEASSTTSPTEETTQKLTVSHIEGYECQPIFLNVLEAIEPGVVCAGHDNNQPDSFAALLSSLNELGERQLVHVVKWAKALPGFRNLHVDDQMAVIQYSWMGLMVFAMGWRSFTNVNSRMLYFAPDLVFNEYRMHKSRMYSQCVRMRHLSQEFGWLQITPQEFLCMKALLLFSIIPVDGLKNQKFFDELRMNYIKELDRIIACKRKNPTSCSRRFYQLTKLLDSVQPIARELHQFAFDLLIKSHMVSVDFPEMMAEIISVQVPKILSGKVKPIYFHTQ
Outline: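 Percent AR degradation was derived from GAPDH-normalised Western blot band intensities (infrared detection) in LNCaP lysates.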

AR protein [2] = target: T2, AR protein (Homo sapiens, UniProt P10275); assay: Degradation of AR protein in VCaP cells (Western blot); details: 8 hours; for inhibition at 0.01 µM: read-out: Degradation rate of the AR protein in VCaP cells, 10 nM (%); for inhibition at 0.1 µM: read-out: Degradation rate of the AR protein in VCaP cells, 100 nM (%)
T2 construct: degradation activity of the compounds disclosed in the present disclosure on AR protein in VCaP cells; host or cells: VCaP
T2 sequence (P10275 1-920): T1 sequence (P10275 1-920 T878A) with A878T
Outline: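 Western blot readout: AR band grayscale normalised to GAPDH, used to derive degradation rate. Lysates came from VCaP cells exposed to compound for 8 h, with solvent controls run in parallel.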

LNCaP FGC cells = assay: Inhibition of proliferation of LNCaP cells (WST-8); details: LNCaP FGC cells, 96 hours, WST-8 absorbance at 450 nm, read-out: IC50 for inhibiting the proliferation of LNCaP cells
Description: The cells were cultured in a cell culture incubator with 5% CO2 at 37° C. overnight. […] On the sixth day, 96 well plates were taken out, and 20 μL of WST-8 (Beytime, C0040) reagent was added to each well.

[3] = LNCaP cells, compound 10 nM, 8 hours, Western blot grayscale, GAPDH internal reference
[4] = LNCaP cells, compound 100 nM, 8 hours, Western blot grayscale, GAPDH internal reference

Row | SMILES | IC50 (VCaP cells; VCaP, 168 h) | inhibition at 0.01 µM (AR protein [2]; compound at 10 nM) | inhibition at 0.1 µM (AR protein [2]; compound at 100 nM) | inhibition at 0.01 µM (AR protein [1]; [3]) | inhibition at 0.1 µM (AR protein [1]; [4]) | IC50 (LNCaP FGC cells; Homo sapiens, LNCaP, 96 h) | further results
1 | CC1(C)C(=O)N(c2ccc(C#N)c(C(F)(F)F)c2)C(=S)N1c1ccc(C(=O)N2CC3(CC(N4CCC5(CC4)COc4cc6c(cc45)C(=O)N(C4CCC(=O)NC4=O)C6=O)C3)C2)c(F)c1 (stereo not shown) [Compound 92] | 4.09 µM |  |  |  |  |  | 
2 | CC1(C)C(=O)N(c2ccc(C#N)c(C(F)(F)F)c2)C(=S)N1c1ccc(C(=O)N2CCC(CN3CCC4(CCc5cc6c(cc5O4)C(=O)N(C4CCC(=O)NC4=O)C6=O)CC3)CC2)c(F)c1 (stereo not shown) [Compound 99] | 3.8 µM |  |  |  |  |  | 
3 | CC1(C)C(=O)N(c2ccc(C#N)c(C(F)(F)F)c2)C(=S)N1c1ccc(C(=O)N2CC(N3CCC4(CCc5cc6c(cc5O4)C(=O)N(C4CCC(=O)NC4=O)C6=O)CC3)C2)c(F)c1 (stereo not shown) [Compound 102] | 3.88 µM |  |  |  |  |  | 
4 | N#Cc1ccc(O[C@H]2CC[C@H](NC(=O)c3ccc(N4CC(N5CCC6(CCc7cc8c(cc7O6)C(=O)N(C6CCC(=O)NC6=O)C8)CC5)C4)nn3)CC2)cc1Cl (stereo partly shown) [Compound 46] | 0.11 µM | 39% | 59% |  |  |  | inhibition at 0.01 µM (AR protein [1]; LNCaP, 8 h): 35%; inhibition at 0.1 µM (AR protein [1]; LNCaP, 8 h): 47%
5 | CC1(C)C(=O)N(c2ccc(C#N)c(C(F)(F)F)c2)C(=S)N1c1ccc(C(=O)N2CC(CN3CCC4(CCc5cc6c(cc5O4)C(=O)N(C4CCC(=O)NC4=O)C6=O)CC3)C2)c(F)c1 (stereo not shown) [Compound 84] | 4.57 µM |  |  |  |  |  | 
6 | CC1(C)C(=O)N(c2ccc(C#N)c(C(F)(F)F)c2)C(=S)N1c1ccc(C(=O)N2CCC(N3CCC4(CCc5cc6c(cc5O4)C(=O)N(C4CCC(=O)NC4=O)C6=O)CC3)CC2)c(F)c1 (stereo not shown) [Compound 101] | 3.75 µM |  |  |  |  |  | 
7 | CC1(C)C(=O)N(c2ccc(C#N)c(C(F)(F)F)c2)C(=S)N1c1ccc(C(=O)N2CCC3(CC2)CC(N2CCC4(CCc5cc6c(cc5O4)C(=O)N(C4CCC(=O)NC4=O)C6=O)CC2)C3)c(F)c1 (stereo not shown) [Compound 103] |  |  |  |  |  |  | IC50 (VCaP cells; VCaP cells, 168 hours, WST-8 absorbance at 450 nm): 2.74 µM
8 | CC1(C)C(=O)N(c2ccc(C#N)c(C(F)(F)F)c2)C(=S)N1c1ccc(C(=O)N2CC(N3CCC4(CCc5cc6c(cc5O4)C(=O)N(C4CCC(=O)NC4=O)C6)CC3)C2)c(F)c1 (stereo not shown) [Compound 105] | 2.96 µM |  |  |  |  |  | 
9 | CC1(C)C(=O)N(c2ccc(C#N)c(C(F)(F)F)c2)C(=S)N1c1ccc(C(=O)N2CCC(F)(CN3CCC4(CCc5cc6c(cc5O4)C(=O)N(C4CCC(=O)NC4=O)C6=O)CC3)CC2)c(F)c1 (stereo not shown) [Compound 97] | 1.3 µM |  |  |  |  |  | 
10 | CC1(CN2CCC3(CC2)COc2c3ccc3c2CN(C2CCC(=O)NC2=O)C3=O)CCN(c2ccc(C(=O)N[C@H]3C(C)(C)[C@H](Oc4ccc(C#N)c(Cl)c4)C3(C)C)cc2)CC1 (stereo partly shown) [Compound 222] |  | 8% | 61% | 4% | 75% | 0.88 µM | 
11 | CC1(C)[C@H](NC(=O)c2ccc(N3CCC(C#N)(CN4CCC5(CC4)COc4c5ccc5c4CN(C4CCC(=O)NC4=O)C5=O)CC3)nn2)C(C)(C)[C@H]1Oc1ccc(C#N)c(Cl)c1 (stereo partly shown) [Compound 225] |  | -29% | 30% | -35% | 7% | 0.03 µM | 
12 | N#Cc1ccc(O[C@H]2CC[C@H](NC(=O)c3ccc(N4CCC(F)(CN5CCC6(CCc7ccc8c(c7O6)CN(C6CCC(=O)NC6=O)C8=O)CC5)CC4)nn3)CC2)cc1Cl (stereo partly shown) [Compound 166] |  | 43% | 60% | 36% | 19% |  | Degradation rate of the AR protein in VCaP cells, 10 nM (%) (AR protein [2]; compound at 10 nM): 15%; Degradation rate of the AR protein in VCaP cells, 100 nM (%) (AR protein [2]; compound at 100 nM): 42%; IC50 (LNCaP FGC cells): 71.9 µM
13 | COc1cc(O[C@H]2C(C)(C)[C@H](NC(=O)c3ccc(N4CCC(F)(CN5CC6(CCc7ccc8c(c7O6)C(=O)N(C6CCC(=O)NC6=O)C8=O)C5)CC4)cc3)C2(C)C)ccc1C#N (stereo partly shown) [Compound 274] |  | 4% | -13% | -3% | -5% | 84.9 µM | 
14 | COc1cc(OC2CCC(NC(=O)c3cnc(N4CCC(C)(CN5CCC6(CC5)COc5c6ccc6c5CN(C5CCC(=O)NC5=O)C6=O)CC4)nc3)CC2)ccc1C#N (stereo not shown) [Compound 247] |  | 53% | 70% | -10% | 27% | 0.015 µM | 
15 | COc1cc(O[C@H]2C(C)(C)[C@H](NC(=O)c3ccc(N4CCC(C)(CN5CCC6(CCc7ccc8c(c7O6)C(=O)N(C6CCC(=O)NC6=O)C8=O)CC5)CC4)cc3)C2(C)C)ccc1C#N (stereo partly shown) [Compound 268] |  | -26% | -32% | 15% | 31% | 88.6 µM | 
16 | COc1cc(O[C@H]2C(C)(C)[C@H](NC(=O)c3ccc(N4CCC(C#N)(CN5CCC6(CC5)COc5c6ccc6c5CN(C5CCC(=O)NC5=O)C6=O)CC4)nn3)C2(C)C)ccc1C#N (stereo partly shown) [Compound 224] |  | 24% | 57% | 41% | 52% | 0.011 µM | 
17 | N#Cc1ccc(O[C@H]2CC[C@H](NC(=O)c3ccc(N4CC5(CCC(N6CCC7(CCc8ccc9c(c8O7)CN(C7CCC(=O)NC7=O)C9=O)CC6)CC5)C4)nn3)CC2)cc1Cl (stereo partly shown) [Compound 153] |  | 35% | 76% | 23% | 19% | 13.6 µM | 
